From PubChem BioAssay (NCI)
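Each compound was tested at five concentrations against cells in 96-well plates for 48 hours. TGI: concentration producing complete growth inhibition.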

Legend:
Assay in all cases: NCI-60 cell line screen, 48 h
SN12C renal = tested on: SN12C renal
KM20L2 colon = tested on: KM20L2 colon
SF-268 CNS = tested on: SF-268 CNS
K-562 leukemia = tested on: K-562 leukemia
MALME-3M melanoma = tested on: MALME-3M melanoma
HCT-15 colon = tested on: HCT-15 colon
DLD-1 colon = tested on: DLD-1 colon
CCRF-CEM leukemia = tested on: CCRF-CEM leukemia
LXFL 529 NSCLC = tested on: LXFL 529 NSCLC
UACC-257 melanoma = tested on: UACC-257 melanoma
EKVX NSCLC = tested on: EKVX NSCLC
RPMI-8226 leukemia = tested on: RPMI-8226 leukemia
RXF 393 renal = tested on: RXF 393 renal
OVCAR-5 ovarian = tested on: OVCAR-5 ovarian
HOP-18 NSCLC = tested on: HOP-18 NSCLC
HOP-62 NSCLC = tested on: HOP-62 NSCLC
SNB-19 CNS = tested on: SNB-19 CNS
HCT-116 colon = tested on: HCT-116 colon
U251 CNS = tested on: U251 CNS
NCI-H522 lung = tested on: NCI-H522 lung
SW-620 colon = tested on: SW-620 colon
UACC-62 melanoma = tested on: UACC-62 melanoma
HT29 colon = tested on: HT29 colon
SNB-78 CNS = tested on: SNB-78 CNS
M19-MEL melanoma = tested on: M19-MEL melanoma
OVCAR-3 ovarian = tested on: OVCAR-3 ovarian
TK-10 renal = tested on: TK-10 renal
DMS 273 small cell lung = tested on: DMS 273 small cell lung
M14 melanoma = tested on: M14 melanoma
IGROV1 ovarian = tested on: IGROV1 ovarian
XF 498 CNS = tested on: XF 498 CNS
NCI-H226 lung = tested on: NCI-H226 lung
A498 renal = tested on: A498 renal
MOLT-4 leukemia = tested on: MOLT-4 leukemia
HL-60(TB) leukemia = tested on: HL-60(TB) leukemia
SK-OV-3 ovarian = tested on: SK-OV-3 ovarian
SF-539 CNS = tested on: SF-539 CNS
DMS 114 small cell lung = tested on: DMS 114 small cell lung
KM12 colon = tested on: KM12 colon
HOP-92 NSCLC = tested on: HOP-92 NSCLC
SK-MEL-28 melanoma = tested on: SK-MEL-28 melanoma
NCI-H23 lung = tested on: NCI-H23 lung
SK-MEL-5 melanoma = tested on: SK-MEL-5 melanoma
SNB-75 CNS = tested on: SNB-75 CNS
A549 NSCLC = tested on: A549 NSCLC
COLO 205 colon = tested on: COLO 205 colon
SK-MEL-2 melanoma = tested on: SK-MEL-2 melanoma
LOX IMVI melanoma = tested on: LOX IMVI melanoma
786-0 renal = tested on: 786-0 renal
ACHN renal = tested on: ACHN renal
NCI-H460 lung = tested on: NCI-H460 lung
OVCAR-8 ovarian = tested on: OVCAR-8 ovarian
CAKI-1 renal = tested on: CAKI-1 renal
UO-31 renal = tested on: UO-31 renal
HCC-2998 colon = tested on: HCC-2998 colon

Measured: TGI

C=CCn1cc(C(=O)NC(=O)NCCCCCOC(=O)CCCCCCCCCCC(=O)OCCCCCNC(=O)NC(=O)c2cn(CC=C)c(=O)n(C)c2=O)c(=O)n(C)c1=O
> 100 µM: SN12C renal | KM20L2 colon | SF-268 CNS | K-562 leukemia | MALME-3M melanoma | HCT-15 colon | DLD-1 colon | CCRF-CEM leukemia | LXFL 529 NSCLC | UACC-257 melanoma | EKVX NSCLC | RPMI-8226 leukemia | RXF 393 renal | OVCAR-5 ovarian | HOP-18 NSCLC | HOP-62 NSCLC | SNB-19 CNS | HCT-116 colon | U251 CNS | NCI-H522 lung | SW-620 colon | UACC-62 melanoma | HT29 colon | SNB-78 CNS | M19-MEL melanoma | OVCAR-3 ovarian | TK-10 renal | DMS 273 small cell lung | M14 melanoma | IGROV1 ovarian | XF 498 CNS | NCI-H226 lung | A498 renal | MOLT-4 leukemia | HL-60(TB) leukemia | SK-OV-3 ovarian | SF-539 CNS | DMS 114 small cell lung | KM12 colon | HOP-92 NSCLC | SK-MEL-28 melanoma | NCI-H23 lung | SK-MEL-5 melanoma | SNB-75 CNS | A549 NSCLC | COLO 205 colon | SK-MEL-2 melanoma | LOX IMVI melanoma | 786-0 renal | ACHN renal | NCI-H460 lung | OVCAR-8 ovarian | CAKI-1 renal | UO-31 renal | HCC-2998 colon
